Measured values published in patent US20260021180A1, “IMPROVING ADOPTIVE CELL TRANSFER THERAPY (ACT) TREATMENT” (YISSUM RESEARCH DEVELOPMENT COMPANY OF THE HEBREW …, priority 2022, published 2026).

Columns and labels:
HEK-293T cells [1] = experiment: Extracellular acidification rate (ECAR), Seahorse analysis, HEK-293T cells; type: cell-based, human; conditions: trehalose 5 mM, oligomycin 1 μM, 2DG 50 mM, added in sequence
Experimental: FIG. 3: Treh and Tret1 co-expression allows utilization of Trehalose as a carbon source for glycolysis. Line graph of the Extra Cellular Acidification Rate (ECAR) of Tret1-3×Flag and Treh-GFP expressing (transduced with retrovirus expressing both Tret1-3×Flag and Treh-GFP) or wild-type HEK-293T cells. Trehalose was added at 5 mM, Oligomycin at 1 μM and 2DG (2-Deoxy-D-glucose) at 50 mM.
To directly examine this notion, whether trehalose restores glycolysis of Treh/Tret1 expressing cells was tested. For this purpose, the extracellular acidification rate (ECAR), as a proxy for lactate secretion, of Treh/Tret1 or wild-type cells, was analyzed using Seahorse analysis.

HEK-293T cells [2] = experiment: Cell survival by PI staining (flow cytometry) of transfected HEK-293T cells in glucose-free, trehalose-supplemented medium; type: cell-based, human; conditions: four days
Experimental: (§1) FIGS. 2A-2C: Treh and Tret1 co-expression rescues the proliferation and survival of HEK-293T cells in glucose-free, trehalose-supplemented medium. (2A) Histograms of cell survival as measured by PI staining using a flow cytometer. HEK-293T cells were transfected with either Tret1-3×Flag expression plasmid, HA-Treh expression plasmid or both together. 48 h post-transfection medium was replaced to a glucose-free medium supplemented with the indicated trehalose concentrations. Four days later flow analysis was performed. (2B) Histograms of cell survival as measured by PI staining using a flow cytometer. HEK-293T cells were co-transfected with Tret1-3×Flag and HA-Treh expression plasmids or pCDNA3.1 (empty vector). 48 h post-transfection medium was replaced with glucose-free medium supplemented with the 25 mM trehalose. Four days later, flow analysis was performed. (2C) Bar graph of MMT analysis. HEK-293T cells were transfected with pCDNA3.1 (empty vector), Tret1-3×Flag or HA-Treh expression plasmids or both plasmids together. 48 h post-transfection medium was replaced with glucose-free medium supplemented with 25 mM trehalose. Ten days later, cell survival was measured by MTT assay.
(§2) To test the function of delivered Treh and Tret1 genes in HEK-293T cells the survival of Treh/Tret1 expressing cells was tested in the absence or presence of various trehalose concentrations in glucose-free media.

human CD8 T cells = experiment: Metabolic isotope tracing (13C6-glucose vs 13C12-trehalose, LC-MS) in DmTret1-1B/Treh-expressing human CD8 T cells; type: cell-based; conditions: 24 h with 13C12-Trehalose vs 13C6-Glucose; glycolysis, pentose phosphate pathway, TCA cycle
Experimental: FIGS. 6A-6I: Human primary T cells utilize trehalose for glycolysis, proliferation and cytokine production. Human primary PBMCs were activated with anti-CD3 and anti-CD28 for 48 hours. Then, they were retrovirally transduced with Treh1 and a trehalose transporter. (6A) FACS analysis of the T cells transduced with Treh1-GFP and Dm-Tret1-1B-mKate2. CD8 T cells were gated, and expression was analyzed 48 h after transduction. (6B) FACS analysis of the T cells transduced with Treh1-GFP and Dm-Tret1-1A-mKate2. CD8 T cells were gated, and expression was analyzed 48 h after transduction. (6C) Normalized ECAR measured by Seahorse analysis following trehalose or glucose supplementation and oligomycin and 2DG injections of Treh1 or DmTret1-1B/Treh1-expressing CD8 T cells. (6D-G): DmTret1-1B/Treh-expressing human CD8 T cells were incubated for 24 h with 13C6-Glucose or 13C12-Trehalose. Then cell extracts and media were subjected to metabolic analysis using LC-MS. (6D) Levels of lactate isotopologues in the medium of the cells. (6E-G) Isotopologue distributions in the cell fraction of detected key metabolites generated during (6E) glycolysis, (6F) the TCA cycle and (6G) the phosphate pentose pathway. […] Cells were counted every 3-4 days. […] Media was collected and INF-γ concentration was measured by ELISA at optical density of 605 (O.D.605). […]

HEK-293T cells [3] = experiment: MTT assay of transfected HEK-293T cells in glucose-free medium supplemented with trehalose; type: cell-based, human
Experimental: as §1, §2

Q: How did the “ECAR of HEK293T cells expressing Treh/Tret1 following addition” value (HEK-293T cells [1]) turn out when O=CC[C@@H](O)[C@H](O)[C@H](O)CO [2-Deoxy-D-glucose, reference compound] was run?
A: significantly decreased

Q: With CC[C@H]1/C=C/C=C/C[C@@H](C)[C@H](O)[C@@](C)(O)C(=O)[C@@H](C)[C@H](O)[C@@H](C)C(=O)[C@@H](C)[C@H](O)[C@@H](C)/C=C/C(=O)O[C@@H]2[C@H](C)[C@H](CC1)O[C@]1(CC[C@H](C)[C@H](C[C@@H](C)O)O1)[C@H]2C [oligomycin, reference compound] as the molecule, how does the “ECAR of HEK293T cells expressing Treh/Tret1 following addition” value (HEK-293T cells [1]) read?
A: did not lead to an elevation in ECAR

Q: Which “rescue of survival of Treh/Tret1 expressing cells” value (HEK-293T cells [2]; HEK-293T co-transfected with Tret1-3×Flag and HA-Treh, glucose-free medium + 25 mM trehalose) does the source give for OC[C@H]1O[C@H](O[C@H]2O[C@H](CO)[C@@H](O)[C@H](O)[C@H]2O)[C@H](O)[C@@H](O)[C@@H]1O [trehalose] here?
A: could rescue the survival

Q: And the “rescue of survival of empty vector transfected cells” value (HEK-293T cells [2]; HEK-293T with pCDNA3.1 empty vector, glucose-free medium + 25 mM trehalose)?
A: not

Q: What about the “survival of Treh/Tret1 expressing cells” value (HEK-293T cells [2]; HEK-293T, glucose-free media, 2 mM trehalose, PI staining) of the same molecule?
A: substantial rescue

Q: What about the “survival of Treh/Tret1 expressing cells versus trehalose concentration” value (HEK-293T cells [2]; HEK-293T, glucose-free media, various trehalose concentrations) of the same molecule?
A: increased survival of the cells in correlation with the trehalose concentration

Q: And the “ECAR of HEK293T cells expressing Treh/Tret1 following addition” value (HEK-293T cells [1])?
A: significant increase

Q: What about the “metabolic pathways into which the sugar integrates” value (human CD8 T cells) of the same molecule?
A: integrates into the same metabolic pathways as glucose

B1: Tret1: Drosophila melanogaster trehalose transporter 1, long isoform A, 857 amino acids (SEQ ID NO: 5), expressed in human cells (protein)
chain: MSGRDNRGAGGGGGGHQPLSNAMGKLKEKLTRVGDELGYHRVESNLSTSNTATSLDTILPEDPFLFPQVSPQRHPQNTVRTQRLLEDEPPLSFRPLLEDDDINEPPTQQQQRTPLRASGSLELTPLPPPPTSLEIREHRDRQQRGAQGDELQRSKQSLKGSRVSFERRDTGNSNTNSNKAAESSDEDSFEEKRTGFQQQKATSVDHKGILKDLKHILANDNRRQFQAKKHVSLDVKGTRFLQDLLKESSSEEEFHKTRREFQGRKHQSLDPRVTFKLDKVLQGSSTDSDEEGEDAEHKRLIHRPKDITKPVIIDLKDLESESDEDFLTSRQHFQQQRSISTDSRKSRRLYEMDEMDNKRGENIRHAVPFVRQITEDGKPKLEVYRPTTNPIYIWTQVLAALSVSLGSLVVGFVSAYTSPALVSMTDRNITSFEVTQDAGSWVGGIMPLAGLAGGIAGGPLIEYLGRRNTILATAVPFIVSSLLIACAVNVAMVLCGRFLAGFCVGIASLSLPVYLGETVQPEVRGTLGLLPTAFGNIGILLCFVAGSFMNWSMLAFLGAALPVPFLILMFLIPETPRWFVGRGLEERARKALKWLRGKEADVEPELKGLMRSQADADRQASRNTMLELLKLNNLKPLSISLGLMFFQQFSGINAVIFYTVQIFKDAGSTIDGNLCTIIVGIVNFLATFIGIVLIDRAGRKILLYVSDIAMVLTLFVLGGFFYCKTYGPDVSHLGWLPLTCFVIYILGFSLGFGPIPWLMMGEILPAKIRGSAASVATAFNWFCTFVVTKTFQDLTVAMGAHGAFWLFGAICFVGLFFVIIYVPETQGKTLEDIERKMMGRVRRMSSVANIKPLSFNM
modifications: 3xFlag tag; Drosophila melanogaster
Q: For B1, which “survival of mammalian cells with trehalose as the only sugar source (summary statement)” value (HEK-293T cells [3]) is on record?
A: greatly improved survival
